This is an account of results in patent US6667293B1, “Use of cyclodextrins to modulate gene expression with reduced immunostimulatory response” (priority 1995, dated 2003).

Data set [1] relates to spleen lymphocytes of CD1 mice. The experiment in a line: Immunoglobulin synthesis (IgG/IgM ELISA) by spleen cells of in vivo treated mice. On the set-up: species or system mouse. How it is done:
(§1) Male CD1 mice (4-5 weeks, 20-22 g, Charles river, Wilmington, Mass.) were used in this study. The animals were fed with commercial diet and water ad libidum and were kept at the animal facility of the University of Massachusetts Medical Center (Worcester, Mass.). For in vivo studies, phosphorothioate oligonucleotides (final concentration 4 mg/ml) were mixed with 5% of the cyclodextrin HPCD or HECD in sterile PBS, sonicated at 4° C. for 1 hour, followed by incubation at 4° C. overnight. The phosphorothioate oligonucleotide, either in plain PBS or mixed with cyclodextrin, was injected into mice intraperitoneally, in a volume of 0.25 ml (1 mg/mouse). After 24 hr (in the case of the phosphorothioate oligonucleotide of SEQ ID NO:4) and 48 hr (in the case of the phosphorothioate oligonucleotide of SEQ ID NO:2), mice were sacrificed and spleens were collected and prepared for further studies. Two or three mice were studied for each condition and analyzed individually.
Spleens from in vivo treated mice were harvested and single cell suspensions were set in culture at a density of 10^6 cells/ml, in 1 ml RPMI complete medium. […] The optical density (405 nm) was measured using an automatic ELISA plate reader (Bio-Tek Instruments, Inc). IgG and IgM levels were calculated based on the standard curve. […]

Data set [2] relates to mouse splenocytes. Description: Splenic cell proliferation assay, [3H]-thymidine incorporation. In kind it is cell-based. Particulars: for cell proliferation ([3H]-thymidine incorporation): oligonucleotide alone, FIG. 1 / FIG. 3 (SEQ ID NO:4 at 1 or 10 μg/ml). How it is done:
Mouse spleen was taken from male CD1 mouse (4-5 weeks, Charles River, Wilmington, Mass.). Single cell suspensions were prepared by gently mincing with frosted ends of glass slides, washed twice, and then resuspended in RPMI complete medium [RPMI 1640 medium supplemented with 10%-heat inactivated (56° C. for 30 minutes) fetal bovine serum, 2 mM glutamine, 100 μg/ml streptomycin, 100 U/ml penicillin, and 50 μM 2-mercaptoethanol]. The cells were then plated in 96-well dishes at a density of 10^6 cells/ml, in a final volume of 100 μl. Oligonucleotides were added to the cell culture in 10 μl of TE buffer (10 mM Tris-HCL pH 7.5, 1 mM EDTA). Cyclodextrin analogs: 2-hydroxypropyl-βcyclodextrin (HPCD, degree of substitution 5-8), hydroxyethyl-β cyclodextrin (HECD, degree of substitution 15), and Encapsin (which is a mixture of hydroxypropyl β-cyclodextrin but has a different degree of substitution, 17.8), were purchased pyrogen free (Amaizo, Hammond, Ind.) and were added to the cells at concentration of 0.5% in RPMI medium except where indicated. Cells were then set to culture in a 37° C., 5% CO2-[…], humidified air incubator for further studies. The experiments were done in triplicate.
After 44 hours, cells were pulsed-labeled with 1 μCi [^3H]-thymidine/well (in 20 μl of RPMI medium) for 4 hours. Cells were then harvested by an automatic cell harvester (Skatron, Sterling, Va.) and the filters were counted using a scintillation counter. […] All the three cyclodextrin analogs reduced cell proliferation to similar levels.

In data set [3] the test system is spleen cells of CD1 mice. Description: Cell cycle analysis of spleen cells from in vivo treated mice. The arrangement: species or system mouse. The protocol:
as §1, with “The phosphorothioate oligonucleotide, either in plain PBS or mixed with cyclodextrin, was injected into mice intraperitoneally, in a volume of 0.25 ml (1 mg/mouse).” left out
Spleens from in vivo treated mice were harvested and single cell suspensions were set in culture in RPMI complete medium (10^6 cells/tube in 1 ml RPMI). After 4 hours of culture, cells were washed with FACS buffer and fixed for cell cycle analysis as described above. The experiments were done in duplicate.

Data set [4] has as its system CD1 mice. The experiment in a line: Toxicity observation after intraperitoneal injection. The class given is in vivo, mouse. Particulars: i.p. 50 mg/Kg. How it is done:
as §1
Similar experiments were performed with the phosphorothioate oligonucleotide of SEQ ID NO:4. […] In order to reduce the toxicity, 25 mg/Kg of the phosphorothioate oligonucleotide of SEQ ID NO:4 was injected into the animals.

In data set [5] the test system is immunostimulatory response. The following applies: known from the literature; cited from earlier work.
Data set [6] relates to spleen of CD1 mice. The experiment in a line: Spleen size (spleen weight) after intraperitoneal injection. In kind it is in vivo, mouse. How it is done: as §1
The subject of data set [7] is murine splenic lymphocytes. The experiment in a line: Cell cycle analysis, in vitro (propidium iodide flow cytometry). The class given is cell-based, mouse. Particulars: 48 hours, oligonucleotide 10 μg/ml, cyclodextrin 0.5%.
For data set [8], the system named is HIV-1. Particulars: background statement; cited from earlier work.
Setting [9] is: i.p. 1 mg/mouse (50 mg/Kg), 48 hr.

Take “SEQ ID NO:4: phosphorothioate oligonucleotide, 20-mer that contains multiple 5′-CG-3′ motifs (GAGAACGCTCGACCTTCGAT; all phosphorothioate, sugars by position and methylation of C not given here)”: the “increase in production of IgG and IgM antibodies” value in data set [1] (SEQ ID NO:4, FIG. 7) was “approximately 10 fold”. Moreover, the “cell proliferation ([3H]-thymidine incorporation)” value in data set [2] is reported as “dramatic increase in cell proliferation”. Also, in data set [3] (i.p. 25 mg/Kg, 24 hr), the “% cells in G0/G1” value is 68.5 ± 0.5%, the “% cells in G2/S” value is given as 22.7 ± 0.5%, the “Increase (cells in G2/S compared with PBS)” value is recorded as 41% and the “stimulation of cell proliferation (cell cycle analysis)” value is recorded as “stimulated cell proliferation”. Further, the toxicity observation entry in data set [4] is “noticeable bloody exudate and congestion in abdominal cavities”. Moreover, in data set [5], the immunostimulatory effect result was “induce an immunostimulatory response both in vitro and in vivo”. The “splenomegaly / spleen weight” value in data set [6] (SEQ ID NO:4 i.p., 24 hr, FIG. 6) is “induced splenomegaly”.

As for “SEQ ID NO:3: phosphorothioate oligonucleotide that binds to the human p53 oncogene (CCCTGCTCCCCCCTGGCTCC; all phosphorothioate, sugars by position and methylation of C not given here)”, in data set [5], the immunostimulatory effect entry is given as “does not induce an immunostimulatory effect”.

“SEQ ID NO:2: phosphorothioate oligodeoxynucleotide complementary to the rev region of HIV-1; induces an immunostimulatory response (TCGTCGCTGTCTCCGCTTCTTCTTGCC; DNA, all phosphorothioate, methylation of C not given here)”: the “production of IgG and IgM” value in data set [1] (SEQ ID NO:2, 48 hours after injection, FIG. 5) is on record as “highly significant increase”. The “change in [3H] thymidine incorporation” value in data set [2] (0.1 μg/ml oligonucleotide, FIG. 1) was “no significant change”. Further, the “cell proliferation ([3H]-thymidine incorporation)” value in data set [2] was “increases cell proliferation in a concentration-dependent manner”. Also, in data set [7], the “% cells in G0/G1” value stood at 77.7 ± 1.0%, the “% cells in G2/S” value was 22.3 ± 1.0% and the “Increase (cells in S/G2 phases compared with medium alone)” value turned out to be 44.8%. In addition, in data set [3] (setting [9]), the “% cells in G0/G1” value is recorded as 82.0 ± 1.2% and the “% cells in G2/S” value is given as 18.0 ± 1.2%. The HIV-1 replication result in data set [8] is on record as “inhibit HIV-1 replication”. In data set [6] (i.p. 1 mg/mouse, 48 hr, FIG. 4), the “spleen weight relative to PBS-treated mice” value is “about 1.5 times”.

For the substance 2-hydroxypropyl-β-cyclodextrin [HPCD], in data set [6] (5% HPCD alone), the “spleen weight compared to PBS-treated mice” value is listed as “no effect on spleen weight”.
